According to patent US4962112A, “7-(2-methyl-4-aminopyrrolidinyl)naphthryidine and quinoline compounds” (Abbott Laboratories, priority 1988, dated 1990):
Converted amounts (≈) assume the structure as drawn. Read-outs that look alike come from different tables or passages of the source.

Columns and labels:
[1] = Aqueous solubility in Ringer's buffer at pH 7.5 (HPLC); format: physicochemical
Procedure: A known excess weight of the compound was shaken overnight with a known volume of Ringer's buffer (bicarbonate buffer containing sodium, potassium, calcium and magnesium ions, initially adjusted to pH 7.5). The contents were filtered, and the clear filtrate was analyzed after appropriate dilution using HPLC (UV absorbance detection).

[2] = test system: E. faecalis; experiment: In vitro antibacterial activity, agar dilution MIC; format: cell-based; settings: Enterococcus faecalis, 18 h
[3] = test system: S. agalactiae; experiment: In vitro antibacterial activity, agar dilution MIC; format: cell-based; settings: Streptococcus agalactiae, 18 h; S. agalactiae CMX 508 (Table 1)
[4] = test system: S. pyogenes; experiment: In vitro antibacterial activity, agar dilution MIC; format: cell-based; settings: Streptococcus pyogenes, 18 h, S. pyogenes M79061-98
[5] = test system: K. pneumoniae; experiment: In vitro antibacterial activity, agar dilution MIC; format: cell-based, Klebsiella pneumoniae
[6] = test system: P. mirabilis; experiment: In vitro antibacterial activity, agar dilution MIC; format: cell-based; settings: Proteus mirabilis, 18 h
[7] = test system: P. aeruginosa; experiment: In vitro antibacterial activity, agar dilution MIC; format: cell-based; settings: Pseudomonas aeruginosa, 18 h
[8] = test system: E. coli; experiment: In vitro antibacterial activity, agar dilution MIC; format: cell-based; settings: Escherichia coli
Procedure: (§1) The in vitro antibacterial activity of the test compound was determined by conventional agar dilution procedures. The organisms were grown overnight in brain-heart infusion (BHI) broth (Difco 0037-01-6) at 36° C. Twofold dilutions of the stock solution ([…]) of the test compound were made in BHI agar obtain a test concentration ranging from […]. The plate was inoculated with approximately 10^4 organisms. It was then incubated at 36° C. for 18 h. the minimal inhibitory concentration was the lowest concentration of the test compound that yielded no visible growth on the plate.

[9] = test system: H. influenza; experiment: In vitro antibacterial activity, agar dilution MIC; format: cell-based; settings: 18 h
Procedure: as §1

[10] = test system: L. bozemanni; experiment: In vitro antibacterial activity, agar dilution MIC; format: cell-based; settings: 18 h; L. bozemanni ATCC 33217
Procedure: as §1

[11] = test system: S. aureus; experiment: In vitro antibacterial activity, agar dilution MIC; format: cell-based; settings: Staphylococcus aureus
Procedure: as §1

[12] = test system: N. gonorrhoeae; experiment: In vitro antibacterial activity, agar dilution MIC; format: cell-based; settings: Neisseria gonorrhoeae, 18 h
[13] = test system: L. pneumophila; experiment: microbe, parasite or virus in culture; format: cell-based; settings: Legionella pneumophila
[14] = test system: B. fragilis; experiment: In vitro antibacterial activity, agar dilution MIC; format: cell-based; settings: Bacteroides fragilis
[15] = test system: C. difficile; experiment: In vitro antibacterial activity, agar dilution MIC; format: cell-based; settings: Clostridioides difficile
[16] = Oral pharmacokinetics, blood level by disk agar diffusion bioassay; format: in vivo, Mice; settings: for serum concentrations / blood levels (in words): versus analogs A and B at 100 mg/kg; for Blood Level of Compound: oral 100 mg/kg
Procedure: Mice were administered the quantity of compound indicated orally, as a single dose. At the specified time intervals, blood was collected from groups of five mice. All samples were assayed by a disk agar diffusion bioassay procedure. Bacillus subtilis 6633 or Klebsiella pneumoniae 10032 were used as the assay organisms, and seek agar medium No. 1 (BBL Microbiology Systems; Cockeysville, MD) was the growth medium. The plates were incubated at 32° C for 18 h and read with an image analyzer (Optomax Inc.).

[17] = Klebsiella pneumoniae, 18 h, K. pneumoniae CMX 724A, read-out: MIC
[18] = ATCC25922, 18 h, E. coli ATCC 25922
[19] = H. influenza 588A, read-out: MIC
[20] = ATCC25923, 18 h, S. aureus ATCC 25923
[21] = ATCC9689, 18 h, C. difficile ATCC 9689
[22] = ATCC17857, 18 h, C. difficile ATCC 17857
[23] = compared with 2-unsubstituted aminopyrrolidine analogs

## CC1CC(N)CN1c1cc2c(cc1F)c(=O)c(C(=O)O)cn2-c1ccc(F)cc1F (stereo not drawn) [Epimer of Example 6]
[1]; at pH 7.5 in Ringer's buffer
  solubility: 182 µg/mL (≈ 436 µM)

## C[C@H]1C[C@H](N)CN1c1nc2c(cc1F)c(=O)c(C(=O)O)cn2-c1ccc(F)cc1F [Example 2, (2'S,4'S)-7-(4'-Amino-2'-methylpyrrolidin-1'-yl)-1-(o,p-difluorophenyl)-1,4-dihydro-6-fluoro-4-oxo-1,8-naphthyridine-3-Carboxylic Acid]
[2]; E. faecalis CMX 729G
  MIC: 0.25 µg/mL (≈ 0.598 µM)
[2]; E. faecalis GYR 1166
  MIC: 0.5 µg/mL (≈ 1.2 µM)
[3]
  MIC: 0.12 µg/mL (≈ 0.287 µM)
[4]
  MIC: 0.25 µg/mL (≈ 0.598 µM)
[5]; K. pneumoniae CMX 735A
  MIC: 0.06 MCG/ML
[5]; [17]
  MIC: 0.06 µg/mL (≈ 0.143 µM)
[6]; P. mirabilis CMX 704F
  MIC: 0.25 µg/mL (≈ 0.598 µM)
[6]; P. mirabilis CMX 729B
  MIC: 0.25 µg/mL (≈ 0.598 µM)
[7]; P. aeruginosa A 5005
  MIC: 0.5 µg/mL (≈ 1.2 µM)
[7]; P. aeruginosa CFS 350F
  MIC: 0.5 µg/mL (≈ 1.2 µM)
[7]; P. aeruginosa CFS 387C
  MIC: 0.5 µg/mL (≈ 1.2 µM)
[7]; P. aeruginosa CMX 719A
  MIC: 2 µg/mL (≈ 4.78 µM)
[8]; 18 h, E. coli CMX 733
  MIC: 0.03 µg/mL (≈ 0.0717 µM)
[8]; 18 h, E. coli CMX 744A
  MIC: 0.03 µg/mL (≈ 0.0717 µM)
[8]; 18 h, E. coli CMX 756
  MIC: 0.03 µg/mL (≈ 0.0717 µM)
[8]; [18]
  MIC: 0.03 µg/mL (≈ 0.0717 µM)
[9]; H. influenza 504
  MIC: 0.008 µg/mL (≈ 0.0191 µM)
[9]; H. influenza 519A
  MIC: 0.008 µg/mL (≈ 0.0191 µM)
[9]; H. influenza 566A
  MIC: 0.008 µg/mL (≈ 0.0191 µM)
[9]; [19]
  MIC: 0.008 µg/mL (≈ 0.0191 µM)
[10]
  MIC: 0.25 µg/mL (≈ 0.598 µM)
[11]; 18 h, S. aureus CMX 705
  MIC: 0.03 µg/mL (≈ 0.0717 µM)
[11]; 18 h, S. aureus CMX 730A
  MIC: 0.03 µg/mL (≈ 0.0717 µM)
[11]; 18 h, S. aureus GYR 1162
  MIC: 0.03 µg/mL (≈ 0.0717 µM)
[11]; [20]
  MIC: 0.06 µg/mL (≈ 0.143 µM)
[12]; N. gonorrhoeae 35F AMPI
  MIC: 0.004 µg/mL (≈ 0.00956 µM)
[12]; N. gonorrhoeae CMX 591
  MIC: 0.06 µg/mL (≈ 0.143 µM)
[13]; 18 h
  MIC: 0.25 µg/mL (≈ 0.598 µM)
[13]; ATCC33152, 18 h
  MIC: 0.25 µg/mL (≈ 0.598 µM)
[14]; 18 h, B. fragilis AT25285
  MIC: 0.5 µg/mL (≈ 1.2 µM)
[14]; UC2, 18 h, B. fragilis UC-2
  MIC: 0.5 µg/mL (≈ 1.2 µM)
[15]; [21]
  MIC: 1 µg/mL (≈ 2.39 µM)
[15]; [22]
  MIC: 1 µg/mL (≈ 2.39 µM)
[1]; at pH 7.5 in Ringer's buffer
  AQUEOUS SOLUBILITY: 0.15 mg/mL
[1]; [23]
  solubility properties (in words): significantly improved aqueous solubility properties
[16]; [23]
  oral absorption properties (in words): greatly improved oral absorption properties
[16]; mouse, blood, mice, oral 25 mg/kg, t = 0.5 h, read-out: Blood Level of Compound
  concentration at 0.5 h: 5900 ng/mL
[16]; mouse, blood, mice, oral 25 mg/kg, t = 1.0 h, read-out: Blood Level of Compound
  concentration at 1 h: 3200 ng/mL
[16]; mouse, blood, mice, oral 25 mg/kg, t = 2.0 h, read-out: Blood Level of Compound
  concentration at 2 h: 3300 ng/mL
[16]; mouse, blood, mice, oral 25 mg/kg, t = 3.0 h, read-out: Blood Level of Compound
  concentration at 3 h: 2800 ng/mL
[16]; mouse, blood, mice, oral 25 mg/kg, t = 6.0 h, read-out: Blood Level of Compound
  concentration at 6 h: 1300 ng/mL
[16]; mouse, blood, mice, oral 25 mg/kg, t = 24.0 h, read-out: Blood Level of Compound
  concentration at 24 h: 200 ng/mL
[16]; oral 25 mg/kg
  serum concentrations / blood levels (in words): still achieve better blood
[16]; oral 25 mg/kg, listed as Compound 2
  serum concentrations / blood levels (in words): higher serum concentrations

## CC1CC(N)CN1c1nc2c(cc1F)c(=O)c(C(=O)O)cn2-c1ccc(F)cc1F (stereo not drawn) [Epimer of Example 2]
[1]; at pH 7.5 in Ringer's buffer
  solubility: 340 µg/mL (≈ 813 µM)

## NC1CCN(c2nc3c(cc2F)c(=O)c(C(=O)O)cn3-c2ccc(F)cc2F)C1 (stereo not drawn) [Example A, 7-(3-Amino-pyrrolidin-1-yl)-1-(2,4-difluorophenyl)-1,4-dihydro-6-fluoro--oxo-1,8-naphthyridine-3-carboxylic acid, reference compound]
[2]; E. faecalis CMX 729G
  MIC: 0.25 µg/mL (≈ 0.618 µM)
[2]; E. faecalis GYR 1166
  MIC: 0.5 µg/mL (≈ 1.24 µM)
[3]
  MIC: 0.12 µg/mL (≈ 0.297 µM)
[4]
  MIC: 0.25 µg/mL (≈ 0.618 µM)
[5]; K. pneumoniae CMX 735A
  MIC: 0.06 MCG/ML
[5]; [17]
  MIC: 0.06 µg/mL (≈ 0.148 µM)
[6]; P. mirabilis CMX 704F
  MIC: 0.25 µg/mL (≈ 0.618 µM)
[6]; P. mirabilis CMX 729B
  MIC: 0.12 µg/mL (≈ 0.297 µM)
[7]; P. aeruginosa A 5005
  MIC: 0.5 µg/mL (≈ 1.24 µM)
[7]; P. aeruginosa CFS 350F
  MIC: 0.5 µg/mL (≈ 1.24 µM)
[7]; P. aeruginosa CFS 387C
  MIC: 1 µg/mL (≈ 2.47 µM)
[7]; P. aeruginosa CMX 719A
  MIC: 2 µg/mL (≈ 4.95 µM)
[8]; 18 h, E. coli CMX 733
  MIC: 0.03 µg/mL (≈ 0.0742 µM)
[8]; 18 h, E. coli CMX 744A
  MIC: 0.03 µg/mL (≈ 0.0742 µM)
[8]; 18 h, E. coli CMX 756
  MIC: 0.03 µg/mL (≈ 0.0742 µM)
[8]; [18]
  MIC: 0.03 µg/mL (≈ 0.0742 µM)
[9]; H. influenza 504
  MIC: 0.15 µg/mL (≈ 0.371 µM)
[9]; H. influenza 519A
  MIC: 0.15 µg/mL (≈ 0.371 µM)
[9]; H. influenza 566A
  MIC: 0.15 µg/mL (≈ 0.371 µM)
[9]; [19]
  MIC: 0.008 µg/mL (≈ 0.0198 µM)
[10]
  MIC: 0.5 µg/mL (≈ 1.24 µM)
[11]; 18 h, S. aureus CMX 705
  MIC: 0.03 µg/mL (≈ 0.0742 µM)
[11]; 18 h, S. aureus CMX 730A
  MIC: 0.03 µg/mL (≈ 0.0742 µM)
[11]; 18 h, S. aureus GYR 1162
  MIC: 0.03 µg/mL (≈ 0.0742 µM)
[11]; [20]
  MIC: 0.03 µg/mL (≈ 0.0742 µM)
[12]; N. gonorrhoeae 35F AMPI
  MIC: 0.004 µg/mL (≈ 0.00989 µM)
[12]; N. gonorrhoeae CMX 591
  MIC: 0.06 µg/mL (≈ 0.148 µM)
[13]; 18 h
  MIC: 0.25 µg/mL (≈ 0.618 µM)
[13]; ATCC33152, 18 h
  MIC: 0.25 µg/mL (≈ 0.618 µM)
[14]; 18 h, B. fragilis AT25285
  MIC: 0.4 µg/mL (≈ 0.989 µM)
[14]; UC2, 18 h, B. fragilis UC-2
  MIC: 0.8 µg/mL (≈ 1.98 µM)
[15]; [21]
  MIC: 1.6 µg/mL (≈ 3.96 µM)
[15]; [22]
  MIC: 0.8 µg/mL (≈ 1.98 µM)
[1]; at pH 7.5 in Ringer's buffer
  solubility: 8 µg/mL (≈ 19.8 µM)
[16]; mice, t = 1.0 h
  Blood Level of Compound: 2300 ng/mL
[16]; mice, t = 2.0 h
  Blood Level of Compound: 1700 ng/mL
[16]; mice, t = 3.0 h
  Blood Level of Compound: 1700 ng/mL
[16]; mice, t = 6.0 h
  Blood Level of Compound: 900 ng/mL
